From the supplement of paper PMC10307832

Each cell line was assayed with CC(C)N(CCCNC(=O)Nc1ccc(C(C)(C)C)cc1)C[C@H]1O[C@@H](n2ccc3c(N)ncnc32)[C@H](O)[C@@H]1O + C[C@]1(O)C[C@@H](c2nc(-c3ccc4ccc(-c5ccccc5)nc4c3)c3c(N)nccn32)C1 [Linsitinib] (partner 1 µM) (assay: relative viability (nuclei count vs DMSO), 5 days (fraction); higher = more cells survive). Details: first compound 8 µM.
Procedure, shortened: (§1)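 Nuclei were stained with Hoechst during a one-step fixation (final 0.05% Triton X-100, 1% formaldehyde, 1 ug/ml Hoechst) carried out 5 days after dosing, then counted on 4× images. The cells, lung cancer lines in 1536-well plates, had been dosed by pin tool the day after seeding with one drug alone or a fixed anchor-drug dose plus five library-drug doses (not always all listed) in √10 steps. Relative viability is the nuclei count in treated wells divided by that in vehicle wells, and each value is the median of duplicate plates.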

Cell Line | relative viability
NCI-H3122 | 0.938
HOP-62 | 0.768
HCC-44 | 0.729
A549 | 0.635
LU99A | 0.563
BEN | 0.865
HCC-78 | 0.456
NCI-H1299 | 0.942
NCI-H1563 | 1.18
ABC-1 | 0.905

These cell lines were tested with CC(C)N(CCCNC(=O)Nc1ccc(C(C)(C)C)cc1)C[C@H]1O[C@@H](n2ccc3c(N)ncnc32)[C@H](O)[C@@H]1O + CC(=O)Nc1cccc(-n2c(=O)n(C3CC3)c(=O)c3c(Nc4ccc(I)cc4F)n(C)c(=O)c(C)c32)c1 [Trametinib] (partner 0.02 µM) in the same assay as above. Details: first compound 0.08 µM.
Procedure, shortened: as §1

Cell Line | relative viability
NCI-H2342 | 0.781
PC-14 | 0.648
NCI-H1650 | 0.686
NCI-H2009 | 0.272
NCI-H1993 | 0.609
NCI-H520 | 0.681
PC-3 [JPC-3] | 0.664
LCLC-103H | 0.679
NCI-H647 | 0.435
NCI-H2228 | 0.631
EMC-BAC-2 | 0.895
NCI-H2087 | 0.165
HCC-366 | 0.264
NCI-H1666 | 0.772
NCI-H650 | 0.859
LK-2 | 0.879
NCI-H2126 | 0.551

Cell Line | relative viability
NCI-H1648 | 0.424
SK-MES-1 | 0.537
H3255 | 0.492
COR-L23 | 0.664
COR-L 105 | 0.492
LOU-NH91 | 0.788
ChaGo-K-1 | 0.91
NCI-H2170 | 0.965
NCI-H3122 | 0.242
HOP-62 | 0.349
HCC-44 | 1.11
NCI-H522 | 0.633
LU99A | 0.509
BEN | 1.01
SW 900 | 0.734
HCC-78 | 0.716

Same assay, conditions: first compound 0.253 µM

Cell Line | relative viability
NCI-H2342 | 0.81
PC-14 | 0.701
NCI-H1650 | 0.521
NCI-H2009 | 0.244
NCI-H520 | 0.513
PC-3 [JPC-3] | 0.722
LCLC-103H | 0.708
NCI-H647 | 0.368
NCI-H2228 | 0.375
EMC-BAC-2 | 0.851
NCI-H2087 | 0.191
HCC-366 | 0.36
NCI-H1666 | 0.814
NCI-H650 | 1.06
LK-2 | 0.493
NCI-H2126 | 0.572

Cell Line | relative viability
NCI-H1648 | 0.522
SK-MES-1 | 0.63
H3255 | 0.593
COR-L23 | 0.374
COR-L 105 | 0.402
LOU-NH91 | 0.768
ChaGo-K-1 | 0.875
NCI-H2170 | 0.912
NCI-H3122 | 0.299
HOP-62 | 0.432
HCC-44 | 1.09
NCI-H522 | 0.763
LU99A | 0.44
BEN | 0.92
SW 900 | 0.78
HCC-78 | 0.867

Same assay, conditions: first compound 0.8 µM

Cell Line | relative viability
NCI-H2342 | 0.692
PC-14 | 0.842
NCI-H1650 | 0.219
NCI-H2009 | 0.301
NCI-H1993 | 0.569
NCI-H520 | 0.599
LCLC-103H | 0.662
NCI-H647 | 0.478
NCI-H2228 | 0.388
EMC-BAC-2 | 0.965
NCI-H2087 | 0.225
HCC-366 | 0.325
NCI-H1666 | 0.804
NCI-H650 | 0.875
LK-2 | 0.681
NCI-H2126 | 0.555
NCI-H1648 | 0.406
SK-MES-1 | 0.589
H3255 | 0.483
COR-L23 | 0.631
COR-L 105 | 0.496
ChaGo-K-1 | 0.876
NCI-H2170 | 0.862
NCI-H3122 | 0.202
HOP-62 | 0.316
HCC-44 | 0.936
NCI-H522 | 0.824
LU99A | 0.519
BEN | 0.96
HCC-78 | 0.804

Same assay, conditions: first compound 2.53 µM

Cell Line | relative viability
NCI-H2342 | 0.656
PC-14 | 0.718
NCI-H1650 | 0.645
NCI-H2009 | 0.255
NCI-H1993 | 0.471
NCI-H520 | 0.667
PC-3 [JPC-3] | 0.715
LCLC-103H | 0.653
NCI-H647 | 0.467
NCI-H2228 | 0.52
EMC-BAC-2 | 0.854
NCI-H2087 | 0.232
HCC-366 | 0.344
NCI-H1666 | 0.86
NCI-H650 | 1.03
LK-2 | 0.636
NCI-H2126 | 0.577

Cell Line | relative viability
NCI-H1648 | 0.419
SK-MES-1 | 0.553
H3255 | 0.587
COR-L23 | 0.67
COR-L 105 | 0.465
LOU-NH91 | 0.824
ChaGo-K-1 | 0.876
NCI-H2170 | 0.866
NCI-H3122 | 0.242
HOP-62 | 0.347
HCC-44 | 1.11
NCI-H522 | 0.798
LU99A | 0.504
BEN | 1.26
SW 900 | 0.766
HCC-78 | 0.586

Same assay, conditions: first compound 8 µM

Cell Line | relative viability
NCI-H2342 | 0.826
PC-14 | 0.558
NCI-H1650 | 0.441
NCI-H2009 | 0.296
NCI-H1993 | 0.486
NCI-H520 | 0.695
PC-3 [JPC-3] | 0.683
LCLC-103H | 0.679
NCI-H647 | 0.432
NCI-H2228 | 0.526
EMC-BAC-2 | 0.819
NCI-H2087 | 0.22
HCC-366 | 0.287
NCI-H1666 | 0.764
NCI-H650 | 0.994
LK-2 | 0.694
NCI-H2126 | 0.58
NCI-H1648 | 0.455
